In publication PMC7607171, “Optimized low‐dose combinatorial drug treatment boosts selectivity and efficacy of colorectal carcinoma treatment” (Molecular Oncology, 2020):
Where “and” joins values, the source holds several entries; their conditions need not be identical. Equal values may be shown once. Read-outs that look alike come from different tables or passages of the source. Values belong to the compound of their own block, whether it stands above or below them.

Assays:
DLD1 tumors = assay: Subcutaneous xenograft tumor growth; format: in vivo, Swiss nu/nu mice
Method: (§1) All procedures including animal use were performed in accordance with the Institutional Ethical Committee of Animal Care in Geneva and the Swiss Cantonal Veterinary Office (Authorization number GE‐136‐19). Briefly, female and male Swiss nu/nu mice aged 6–8 weeks were obtained from Charles River (Écully, France). For subcutaneous xenografts mice were inoculated in the left flank with 5x10^6 DLD1 or SW620 cells suspended in 100 µL of cell culture medium, supplemented with 1% FBS.
Drugs were administered through oral gavage based on average body weight of the males (100 µL/mouse) and females (80 µL/mouse) at various concentrations, see Tables S10 and S11.
Solution A: step (1) 30% PEG 400 + 5% propylene glycol + 0.5% Tween 80 and (2) 64.5% sterile H2O. Solution B: step (1) 10% DMSO, (2) 30% PEG 300 + 5% Tween 80 and (3) 55% sterile H2O. […] FOLFOX was administered as 6 mg/kg oxaliplatin two hours before administration of 90 mg/kg leucovorin and 50 mg/kg (DLD1) or 25 mg/kg (SW620) 5‐fluorouracil at day 1 and a repeat of 5‐fluorouracil dosing on day 2.
The Bliss independence model can be used to evaluate the drug interaction potential of a drug mixture. […] The model is based on the probability theory and requires the drug activity of each drug at the selected dose to predict the inhibition rate (IR) at additive doses.

SW620 tumors = assay: Subcutaneous xenograft tumor growth; format: in vivo, Swiss nu/nu mice
Method: as §1, with “FBS. Treatment was initiated when palpable tumors had formed (approximately 30 mm^3) on day 4 for DLD1 and day 5 for the SW620 model.” for “FBS.”
Treatment was initiated once tumor growth was confirmed with bioluminescence measurements. Drugs were administered through oral gavage based on average body weight of the males (100 µL/mouse) and females (80 µL/mouse) at various concentrations, see Tables S10 and S11.
Solution A: step (1) 30% PEG 400 + 5% propylene glycol + 0.5% Tween 80 and (2) 64.5% sterile H2O. Solution B: step (1) 10% DMSO, (2) 30% PEG 300 + 5% Tween 80 and (3) 55% sterile H2O. Vemurafenib was prepared 2x concentrated (half or three/sixth of total solution), and the remaining drugs were prepared 6x concentrated (one/sixth of total solution), after which drugs were diluted to prepare 1x drug concentrations for the ODC or single drugs using the other drugs or complete solvent solutions without drugs for lower concentrations. FOLFOX was administered as 6 mg/kg oxaliplatin two hours before administration of 90 mg/kg leucovorin and 50 mg/kg (DLD1) or 25 mg/kg (SW620) 5‐fluorouracil at day 1 and a repeat of 5‐fluorouracil dosing on day 2.
The Bliss independence model can be used to evaluate the drug interaction potential of a drug mixture. The model is based on the principle that each drug has an independent drug mechanism of action, but all contribute to a common result (e.g., cell death or tumor volume inhibition). The model is based on the probability theory and requires the drug activity of each drug at the selected dose to predict the inhibition rate (IR) at additive doses. For in vivo tumor volume results, we predicted the IR based on the fraction of tumor volume remaining after single‐drug treatment of each of the drugs vs 100% CTRL (F1,2,3,4), using the following formula: IR = […].

[1] = Pharmacokinetics, dried blood spot LC-MS/MS, mice with DLD1 tumors; format: in vivo; details: for Tmax / AUC(0-t) / Cmax: Swiss Nu/nu, mouse, whole blood (dried blood spot), po, regorafenib 15, erlotinib 12.5, selumetinib 5, vemurafenib 75 mg/kg; for AUC(0-t) / Cmax: whole blood, mean ± SD; for AUC(0-t): oral, read-out: AUC0-24h; for increase of AUC as part of the ODC vs single-drug treatment: mice with DLD1 tumors, AUC0-24h
Method: The pharmacokinetic (PK) study was performed using the dried blood spot method. Mice were treated with CTRL, ODCs, and corresponding monotherapies as described above. To determine the disposition in blood in the first 24h, blood samples (5 µL/mouse) were collected from the tail vein (n = 4 mice) at 2h, 4h, 8h, and 24h time points and transferred onto paper (a filter paper 903 protein saver card from Whatman (MA, USA)). A disk with the entire spot was punched from the paper card and transferred to the HPLC vial tube. Hundred µL of MeOH containing a mix of internal standards was added, and the tube was vortex‐mixed for about 1 min before injecting 10 µL into the LC‐MS/MS system. The LC‐MS/MS system consisted of an API 4,000 triple quadrupole mass spectrometer (AB sciex, Concord, ON, Canada) controlled by analyst 1.6.1 software. The mass spectrometer was operated in the multiple reaction monitoring (MRM) mode with positive electrospray ionization. The instrument was coupled with an Agilent series 1100 (Waldbronn, Germany) LC system. Chromatography was performed on a Phenomenex Kinetex C18 analytical column (50 mm x 2.1 mm, 2.6 um; Torrance, CA, USA). The flow rate was 0.5 mL/min using gradient elution conditions. The method was fully validated before application to this pharmacokinetic study.

[2] = Clinical plasma pharmacokinetics in patients, plasma concentration limit calculation; format: in vivo; details: average plasma concentration calculated from AUC0-24h in patients
Method: To select for clinically relevant doses, the clinically attainable drug concentration measured in the blood plasma of patients after treatment is used to calculate the concentration limit for in vitro experiments. […] The average drug concentration is calculated from the AUC0–24h and is implemented as the plasma concentration limit (PCL) which drug dose selection must remain below for in vitro experiments. If a drug is FDA approved, the AUC0–24h selected is the one corresponding to the recommended dose in clinical practice. If a drug is in clinical trials, the AUC0–24h selected is the one corresponding to the maximum tolerated dose in early stage clinical trials. Note, experiments were conducted with the most current PCL calculated from the AUC0–24h information available at the start of experiments (December 2017), see Table S4.

[3] = regorafenib 15 mg/kg, Exp 5, Day 16
[4] = regorafenib 30 mg/kg, Exp 2, Day 14
[5] = regorafenib 30 mg/kg, Exp 5, Day 16
[6] = regorafenib 50 mg/kg, Exp 3, Day 13
[7] = regorafenib 30 mg/kg, Exp 4, Day 22
[8] = regorafenib 30 mg/kg, Exp 6, Day 20
[9] = regorafenib 30 mg/kg, Exp 8, Day 19
[10] = given as part of DLD1-specific ODC
[11] = selumetinib 1 mg/kg, Exp 6, Day 18
[12] = selumetinib 5 mg/kg, Exp 5, Day 16
[13] = selumetinib 5 mg/kg, Exp 7, Day 25
[14] = selumetinib 10 mg/kg, Exp 5, Day 16
[15] = selumetinib 25 mg/kg, Exp 3, Day 13
[16] = selumetinib 0.2 mg/kg, Exp 6, Day 20
[17] = selumetinib 0.2 mg/kg, Exp 8, Day 19
[18] = selumetinib 1 mg/kg, Exp 4, Day 22
[19] = selumetinib 10 mg/kg, Exp 4, Day 22
[20] = vemurafenib 25 mg/kg, Exp 2, Day 14
[21] = vemurafenib 75 mg/kg b.i.d., Exp 3, Day 13
[22] = vemurafenib 75 mg/kg, Exp 2, Day 14
[23] = vemurafenib 75 mg/kg, Exp 5, Day 16
[24] = vemurafenib 75 mg/kg, Exp 7, Day 15
[25] = vemurafenib 150 mg/kg b.i.d., Exp 4, Day 16
[26] = vemurafenib 75 mg/kg, Exp 6, Day 20

- Tmax [1, 10]: 4 h
- AUC(0-t) [1, 10]: 49400 ± 2980 ng·h/mL
- Cmax [1, 10]: 3380 ± 490 ng/mL
- Tmax ([1]; mono): 8 h
- AUC(0-t) ([1]; mono): 17500 ± 5790 ng·h/mL
- Cmax ([1]; mono): 1190 ± 690 ng/mL
- increase of AUC as part of the ODC vs single-drug treatment [1]: 2.8 x
- PCL (plasma concentration limit) [2]: 4.34 µM and 4.3 µM
Structure (SMILES): CNC(=O)c1cc(Oc2ccc(NC(=O)Nc3ccc(Cl)c(C(F)(F)F)c3)c(F)c2)ccn1 [regorafenib]
- % CTRL (tumor volume) (DLD1 tumors; [3]): 87 75 34 % CTRL
- Volume (DLD1 tumors; [3]): 559 479 214 mm^3
- % CTRL (tumor volume) (DLD1 tumors; regorafenib 15 mg/kg, Exp 7, Day 15): 96 24 38 % CTRL
- % CTRL (tumor volume) (DLD1 tumors; [4]): 85 46 20 % CTRL
- Volume (DLD1 tumors; [4]): 594 320 143 mm^3
- % CTRL (tumor volume) (DLD1 tumors; [5]): 63 56 25 % CTRL
- Volume (DLD1 tumors; [5]): 404 358 160 mm^3
- % CTRL (tumor volume) (DLD1 tumors; [6]): 135 76 29 % CTRL
- Volume (DLD1 tumors; [6]): 465 261 99 mm^3
- % CTRL (tumor volume) (SW620 tumors; [7]): 117 45 20 % CTRL
- Volume (SW620 tumors; [7]): 567 220 98 mm^3
- % CTRL (tumor volume) (SW620 tumors; [8]): 90 78 35 % CTRL
- Volume (SW620 tumors; [8]): 468 407 182 mm^3
- % CTRL (tumor volume) (SW620 tumors; [9]): 44 18 10 % CTRL
- Volume (SW620 tumors; [9]): 278 111 64 mm^3

- Tmax [1, 10]: 2 h
- AUC(0-t) [1, 10]: 24800 ± 8250 ng·h/mL
- Cmax [1, 10]: 3830 ± 1640 ng/mL
- Tmax ([1]; mono): 2 h
- AUC(0-t) ([1]; mono): 15200 ± 7590 ng·h/mL
- Cmax ([1]; mono): 1220 ± 330 ng/mL
- increase of AUC as part of the ODC vs single-drug treatment [1]: 1.6 x
- PCL (plasma concentration limit) [2]: 0.60 µM and 0.6 µM
Structure (SMILES): Cn1cnc2c(F)c(Nc3ccc(Br)cc3Cl)c(C(=O)NOCCO)cc21 [selumetinib]
- % CTRL (tumor volume) (DLD1 tumors; [11]): 74 29 12 % CTRL
- Volume (DLD1 tumors; [11]): 366 142 58 mm^3
- % CTRL (tumor volume) (DLD1 tumors; [12]): 37 39 20 % CTRL
- Volume (DLD1 tumors; [12]): 237 234 125 mm^3
- % CTRL (tumor volume) (DLD1 tumors; [13]): 67 50 25 % CTRL
- Volume (DLD1 tumors; [13]): 408 223 79 mm^3
- % CTRL (tumor volume) (DLD1 tumors; selumetinib 10 mg/kg, Exp 4, Day 16): 82 49 22 % CTRL
- % CTRL (tumor volume) (DLD1 tumors; [14]): 33 18 8 % CTRL
- Volume (DLD1 tumors; [14]): 213 117 52 mm^3
- % CTRL (tumor volume) (DLD1 tumors; [15]): 49 33 13 % CTRL
- Volume (DLD1 tumors; [15]): 168 112 46 mm^3
- % CTRL (tumor volume) (DLD1 tumors; selumetinib 50 mg/kg, Exp 2, Day 14): 39 16 7 % CTRL
- % CTRL (tumor volume) (SW620 tumors; [16]): 76 41 21 % CTRL
- Volume (SW620 tumors; [16]): 393 214 107 mm^3
- % CTRL (tumor volume) (SW620 tumors; [17]): 93 5 3 % CTRL
- Volume (SW620 tumors; [17]): 588 30 21 mm^3
- % CTRL (tumor volume) (SW620 tumors; [18]): 67 55 24 % CTRL
- Volume (SW620 tumors; [18]): 323 265 118 mm^3
- % CTRL (tumor volume) (SW620 tumors; [19]): 43 20 9 % CTRL
- Volume (SW620 tumors; [19]): 209 95 43 mm^3

Structure (SMILES): CCCS(=O)(=O)Nc1ccc(F)c(C(=O)c2c[nH]c3ncc(-c4ccc(Cl)cc4)cc23)c1F [vemurafenib]
- % CTRL (tumor volume) (DLD1 tumors; [20]): 80 33 19 % CTRL
- Volume (DLD1 tumors; [20]): 562 231 133 mm^3
- % CTRL (tumor volume) (DLD1 tumors; [21]): 113 88 39 % CTRL
- Volume (DLD1 tumors; [21]): 388 304 136 mm^3
- % CTRL (tumor volume) (DLD1 tumors; [22]): 87 46 23 % CTRL
- Volume (DLD1 tumors; [22]): 612 319 160 mm^3
- % CTRL (tumor volume) (DLD1 tumors; [23]): 94 31 14 % CTRL
- Volume (DLD1 tumors; [23]): 600 200 89 mm^3
- % CTRL (tumor volume) (DLD1 tumors; [24]): 123 69 24 % CTRL
- Volume (DLD1 tumors; [24]): 619 347 123 mm^3
- % CTRL (tumor volume) (DLD1 tumors; [25]): 105 64 28 % CTRL
- Volume (DLD1 tumors; [25]): 587 354 159 mm^3
- % CTRL (tumor volume) (SW620 tumors; [26]): 65 42 21 % CTRL
- Volume (SW620 tumors; [26]): 337 219 109 mm^3
- % CTRL (tumor volume) (SW620 tumors; vemurafenib 75 mg/kg, Exp 8, Day 19): 94 48 58 % CTRL
- Tmax [1, 10]: 4 h
- AUC(0-t) [1, 10]: 14400 ± 2740 ng·h/mL
- Cmax [1, 10]: 1050 ± 360 ng/mL
- Tmax ([1]; mono): 2 h
- AUC(0-t) ([1]; mono): 2180 ± 220 ng·h/mL
- Cmax ([1]; mono): 270 ± 80 ng/mL
- increase of AUC as part of the ODC vs single-drug treatment [1]: 6.6 x
- PCL (plasma concentration limit) [2]: 11.1 µM
